Data from patent US20240158446A1, “CYCLIC COMPOUND HAVING SELECTIVE INHIBITORY ACTION ON KRAS OVER HRAS AND NRAS” (CHUGAI SEIYAKU KABUSHIKI KAISHA, priority 2021, published 2024).
Where a SMILES comes first, the peptide text is derived from it. Bridges are numbered along the chain shown (N, C = ends). [ ]: non-standard residue; d: D form. The star is where a group is joined. hPhe(3-Cl-4-CF3) = N[C@@H](CCc1ccc(C(F)(F)F)c(Cl)c1)C(=O)O; NPrPhe(4-CF3) = CCCN[C@@H](Cc1ccc(C(F)(F)F)cc1)C(=O)O; NMeGly(cPent) = CN[C@H](C(=O)O)C1CCCC1; NMeD = CN[C@@H](CC(=O)O)C(=O)O; NMeL = CN[C@@H](CC(C)C)C(=O)O; NMeNva = CCC[C@H](NC)C(=O)O; Morpholide = C1CN(*)CCO1; Ac4c = NC1(C(=O)O)CCC1; NPrGly = CCCNCC(=O)O; NEtG = CCNCC(=O)O; Sar = CNCC(=O)O

Tests used:
[1] = biological target: GDP-bound KRAS wild-type protein (Homo sapiens, UniProt P01116); assay: Binding to KRAS by surface plasmon resonance (SPR), Single Cycle Kinetics; conditions: SPR, Single Cycle Kinetics, GDP-bound KRAS wild-type protein; read-out: KRAS KD
[2] = biological target: GDP-bound HRAS wild-type protein (Homo sapiens, UniProt P01112); assay: Binding to HRAS by surface plasmon resonance (SPR), Single Cycle Kinetics; conditions: ratio of KD for GDP-bound HRAS wild-type protein to KD for KRAS, SPR
[3] = test system: human lung cancer strain NCI-H441; assay: cells; conditions: NCI-H441, 96 h, read-out: NCI-H441 IC50 (nM), NCI-H441 cell proliferation, 4 days, CellTiter-Glo;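 note: cell proliferation inhibition after four days measured by CellTiter-Glo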
[4] = biological target: GDP-bound NRAS wild-type protein (Homo sapiens, UniProt P01111); assay: Binding to NRAS by surface plasmon resonance (SPR), Single Cycle Kinetics; conditions: ratio of KD for GDP-bound NRAS wild-type protein to KD for KRAS, SPR
Chain of GDP-bound NRAS wild-type protein (P01111 whole entry): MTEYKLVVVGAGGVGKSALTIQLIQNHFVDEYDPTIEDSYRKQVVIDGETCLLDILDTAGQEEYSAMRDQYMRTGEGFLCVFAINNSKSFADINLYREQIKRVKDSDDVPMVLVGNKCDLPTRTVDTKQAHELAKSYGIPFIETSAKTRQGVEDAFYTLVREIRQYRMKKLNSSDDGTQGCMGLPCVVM

Chain of GDP-bound KRAS wild-type protein (P01116 whole entry): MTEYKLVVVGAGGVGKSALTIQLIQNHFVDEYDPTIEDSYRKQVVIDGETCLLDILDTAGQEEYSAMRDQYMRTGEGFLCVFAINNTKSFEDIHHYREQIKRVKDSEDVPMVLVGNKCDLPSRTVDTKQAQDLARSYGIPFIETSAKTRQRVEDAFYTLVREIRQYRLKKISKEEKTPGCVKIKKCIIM
Chain of GDP-bound HRAS wild-type protein (P01112 whole entry): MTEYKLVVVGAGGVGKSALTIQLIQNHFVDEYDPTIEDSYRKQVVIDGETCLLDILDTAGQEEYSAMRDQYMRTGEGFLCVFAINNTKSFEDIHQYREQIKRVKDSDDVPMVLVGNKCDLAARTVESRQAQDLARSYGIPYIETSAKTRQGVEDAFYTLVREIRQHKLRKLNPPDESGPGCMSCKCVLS

Row | SMILES | Kd [1] [nM] | HRAS/KRAS (KD ratio) [2] | IC50 [3] [nM] | NRAS/KRAS (KD ratio) [4]
1 | CC[C@H](C)[C@@H]1NC(=O)[C@H](C(C)C)N(C)C(=O)C[C@@H](C(=O)N(C)CC)N(C)C(=O)[C@H](C2CCCC2)N(C)C(=O)C2(CC(C)(C)C2)NC(=O)[C@@H]2C[C@H](C)CN2C(=O)[C@H](CCc2cc(F)c(C(F)(F)F)c(F)c2)NC(=O)CN(C)C(=O)[C@H](Cc2ccc(C(F)(F)F)cc2)N2CC/C=C\C[C@@H](C2=O)N(C)C(=O)CN(C)C1=O [PP1976] | 0.37 | A (a compound having 10 or more and less than 20 is denoted as A) | 92 | AA (a compound having 20 or more is denoted as AA)
2 | CCO[C@@H]1C[C@H]2C(=O)NC3(CC(C)(C)C3)C(=O)N(C)[C@@H](C3CCCC3)C(=O)N(C)[C@H](C(=O)N(C)C)CC(=O)N(C)[C@@H](COC)C(=O)N[C@@H]([C@@H](C)CC)C(=O)N(C)CC(=O)N(C)[C@H]3C/C=C\CCN(C3=O)[C@@H](Cc3ccc(C(F)(F)F)cc3)C(=O)N(C)CC(=O)N[C@@H](CCc3ccc(C(F)(F)F)c(Cl)c3)C(=O)N2C1 [PP1753] | 0.038 | A (a compound having 10 or more and less than 20 is denoted as A) | 5.9 | A (a compound having 10 or more and less than 20 is denoted as A)
3 | CCC[C@H]1C(=O)N[C@@H]([C@@H](C)CC)C(=O)N(CCC)CC(=O)N(C)CC(=O)N(CCC)[C@@H](Cc2ccc(C(F)(F)F)cc2)C(=O)N(C)CC(=O)N[C@@H](CCc2ccc(C(F)(F)F)c(Cl)c2)C(=O)N2CCC[C@H]2C(=O)NC2(CCC2)C(=O)N(C)[C@@H](C2CCCC2)C(=O)N(C)[C@H](C(=O)N2CCOCC2)CC(=O)N1C [PP1947] ([NMeNva]I[NPrGly][Sar][NPrPhe(4-CF3)][Sar][hPhe(3-Cl-4-CF3)]P[Ac4c][NMeGly(cPent)][NMeD]-Morpholide; lactam N-11) | 0.37 | B (a compound having 3 or more and less than 10 is denoted as B) | 22 | B (a compound having 3 or more and less than 10 is denoted as B)
4 | CCCN1C(=O)CN(C)C(=O)CN(C)C(=O)[C@H]([C@@H](C)CC)NC(=O)[C@H](CC(C)C)N(C)C(=O)C[C@@H](C(=O)N2CCOCC2)N(C)C(=O)[C@H](C2CCCC2)N(C)C(=O)C2(CCC2)NC(=O)[C@@H]2CCCN2C(=O)[C@H](CCc2ccc(C(F)(F)F)c(Cl)c2)NC(=O)CN(CC)C(=O)[C@@H]1Cc1ccc(C(F)(F)F)cc1 [PP1950] ([NMeL]I[Sar][Sar][NPrPhe(4-CF3)][NEtG][hPhe(3-Cl-4-CF3)]P[Ac4c][NMeGly(cPent)][NMeD]-Morpholide; lactam N-11) | 1.9 | C (A compound having a KD ratio of 0.1 or more and less than 3 is denoted as C) | 32.5 | B (a compound having 3 or more and less than 10 is denoted as B)
5 | CC[C@H](C)[C@@H]1NC(=O)[C@H](C2CC2)N(C)C(=O)C[C@@H](C(=O)N(C)CC)N(C)C(=O)[C@H](C2CCCC2)N(C)C(=O)C2(CC(C)(C)C2)NC(=O)[C@@H]2C[C@H](C)CN2C(=O)[C@H](CCc2ccc(C(F)(F)F)c(OC)c2)NC(=O)CN(C)C(=O)[C@H](Cc2ccc(C(F)(F)F)cc2)N2CC/C=C\C[C@@H](C2=O)N(C)C(=O)CN(C)C1=O [PP2007] | 0.14 | B (a compound having 3 or more and less than 10 is denoted as B) | 14.9 | AA (a compound having 20 or more is denoted as AA)
6 | CC[C@H](C)[C@@H]1NC(=O)[C@H](C2CCC2)N(C)C(=O)C[C@@H](C(=O)N(C)C)N(C)C(=O)[C@H](C2CCCC2)N(C)C(=O)C2(CC(C)(C)C2)NC(=O)[C@@H]2C[C@H](C)CN2C(=O)[C@H](CCc2ccc(C(F)(F)F)c(OC)c2)NC(=O)CN(C)C(=O)[C@H](Cc2ccc(C(F)(F)F)cc2)N2CC/C=C\C[C@@H](C2=O)N(C)C(=O)CN(C)C1=O [PP2011] | 0.11 | A (a compound having 10 or more and less than 20 is denoted as A) | 10.3 | A (a compound having 10 or more and less than 20 is denoted as A)
7 | CCCN(C)C(=O)[C@@H]1CC(=O)N(C)[C@@H](CC(F)(F)F)C(=O)N[C@@H]([C@@H](C)CC)C(=O)N(C)CC(=O)N(C)[C@H]2C/C=C\CCN(C2=O)[C@@H](Cc2ccc(C(F)(F)F)cc2)C(=O)N(C)CC(=O)N[C@@H](CCc2cc(F)c(C(F)(F)F)c(F)c2)C(=O)N2C[C@H](OCC)C[C@H]2C(=O)NC2(CCC2)C(=O)N(C)[C@@H](C2CCCC2)C(=O)N1C [PP1702] | 0.085 | A (a compound having 10 or more and less than 20 is denoted as A) | 4.9 | A (a compound having 10 or more and less than 20 is denoted as A)
8 | CC[C@H](C)[C@@H]1NC(=O)[C@H](CC)N(C)C(=O)C[C@@H](C(=O)N(C)C)N(C)C(=O)[C@H](C2CCCC2)N(C)C(=O)C2(CCCC2)N(C)C(=O)[C@@H]2CCCN2C(=O)[C@H](CCc2cc(F)c(C(F)(F)F)c(F)c2)NC(=O)CN(C)C(=O)[C@H](Cc2ccc(C)cc2)N2CC/C=C\C[C@@H](C2=O)N(C)C(=O)[C@@H]2CCCN2C1=O [PP1811] | 0.23 | B (a compound having 3 or more and less than 10 is denoted as B) | 14.3 | A (a compound having 10 or more and less than 20 is denoted as A)
9 | CCCN(C)C(=O)[C@@H]1CC(=O)N(C)[C@@H](COCC)C(=O)N[C@@H]([C@@H](C)CC)C(=O)N(C)CC(=O)N(C)[C@H]2C/C=C\CCN(C2=O)[C@@H](Cc2ccc(C(F)(F)F)cc2)C(=O)N(C)CC(=O)N[C@@H](CCc2ccc(C(F)(F)F)c(OC)c2)C(=O)N2C[C@@H](C)C[C@H]2C(=O)NC2(CC(C)(C)C2)C(=O)N(C)[C@@H](C2CCCC2)C(=O)N1C [PP1991] | 0.15 | A (a compound having 10 or more and less than 20 is denoted as A) | 10.8 | A (a compound having 10 or more and less than 20 is denoted as A)
10 | CC[C@H](C)[C@@H]1NC(=O)[C@H](CC(C)C)N(C)C(=O)C[C@@H](C(=O)N(C)CC)N(C)C(=O)[C@H](C2CCCC2)N(C)C(=O)C2(CC(C)(C)C2)NC(=O)[C@@H]2C[C@@H](F)CN2C(=O)[C@H](CCc2cc(F)c(C(F)(F)F)c(F)c2)NC(=O)CN(C)C(=O)[C@H](Cc2ccc(C(F)(F)F)cc2)N2CC/C=C\C[C@@H](C2=O)N(C)C(=O)CN(C)C1=O [PP1694] | 0.051 | A (a compound having 10 or more and less than 20 is denoted as A) | 4.1 | A (a compound having 10 or more and less than 20 is denoted as A)
11 | CCCN(C)C(=O)[C@@H]1CC(=O)N(C)[C@@H](CC2CCC2)C(=O)N[C@@H]([C@@H](C)CC)C(=O)N(C)CC(=O)N(C)[C@H]2C/C=C\CCN(C2=O)[C@@H](Cc2ccc(C(F)(F)F)cc2)C(=O)N(C)CC(=O)N[C@@H](CCc2cc(F)c(C(F)(F)F)c(F)c2)C(=O)N2C[C@H](OCC)C[C@H]2C(=O)NC2(CCC2)C(=O)N(C)[C@@H](C2CCCC2)C(=O)N1C [PP1705] | 0.14 | A (a compound having 10 or more and less than 20 is denoted as A) | 8 | AA (a compound having 20 or more is denoted as AA)
12 | CCO[C@@H]1C[C@H]2C(=O)NC3(CC(C)(C)C3)C(=O)N(C)[C@@H](C3CCCC3)C(=O)N(C)[C@H](C(=O)N(C)CC)CC(=O)N(C)[C@@H](CC(F)F)C(=O)N[C@@H]([C@@H](C)CC)C(=O)N(C)CC(=O)N(C)[C@H]3C/C=C\CCN(C3=O)[C@@H](Cc3ccc(C(F)(F)F)cc3)C(=O)N(C)CC(=O)N[C@@H](CCc3cc(F)c(C(F)(F)F)c(F)c3)C(=O)N2C1 [PP1643] | 0.055 | A (a compound having 10 or more and less than 20 is denoted as A) | 1.6 | A (a compound having 10 or more and less than 20 is denoted as A)
13 | CC[C@H](C)[C@@H]1NC(=O)[C@H](CC)N(C)C(=O)C[C@@H](C(=O)N(C)CC)N(C)C(=O)[C@H](C2CCCC2)N(C)C(=O)C2(CC(C)(C)C2)NC(=O)[C@@H]2C[C@H](C)CN2C(=O)[C@H](CCc2ccc(C(F)(F)F)c(Cl)c2)NC(=O)CN(C)C(=O)[C@H](Cc2ccc(C)cc2)N2CC/C=C\C[C@@H](C2=O)N(C)C(=O)CN(C)C1=O [PP1874] | 0.13 | A (a compound having 10 or more and less than 20 is denoted as A) | 9.9 | A (a compound having 10 or more and less than 20 is denoted as A)
14 | CCO[C@@H]1C[C@H]2C(=O)NC3(CC(C)(C)C3)C(=O)N(C)[C@@H](C3CCCC3)C(=O)N(C)[C@H](C(=O)N(C)CC)CC(=O)N(C)[C@@H](CC(C)C)C(=O)N[C@@H]([C@@H](C)OCC)C(=O)N(C)CC(=O)N(C)[C@H]3C/C=C\CCN(C3=O)[C@@H](Cc3ccc(C(F)(F)F)cc3)C(=O)N(C)CC(=O)N[C@@H](CCc3cc(F)c(C(F)(F)F)c(F)c3)C(=O)N2C1 [PP1919] | 0.23 | A (a compound having 10 or more and less than 20 is denoted as A) | 6.3 | A (a compound having 10 or more and less than 20 is denoted as A)
